One series has as its system MEF cells. Put plainly: Glucose uptake, 2-NBDG labeling, high-content imaging (Operetta), MEFs. It is filed as cell-based, mouse. As for the experimental part:
Increased glucose uptake was indicated as increasing signal of 2-NBDG ([…]) in cells. Glucose uptake assays were carried out in a final incubation volume of 50 μl consisting of, 2-NBDG), (100 μM) in 1× Phosphate Buffered Saline w/Ca+, Mg+ (PBS++). The same buffer was used for washing cells. Insulin was used as a positive control. All testing compounds were prepared in 10% DMSO and diluted 1:100 for a final concentration of 0.1% DMSO (vehicle). Cells were culture to 70-90% confluence and then washed twice with PBS++. Cells were incubated for 30 minutes at 37° C. in PBS++. Nuclear stain, HCS CellMask stain (blue, Invitrogen), and/or testing compounds (ellagic acid dihydrate, insulin, or vehicle) were added. Cells were incubated for 30 min at 37° C. Cells were washed twice with PBS++ and incubated with 2-NBDG for 10 minutes. Cells were washed thrice with PBS++ and then imaged in PBS++. Alternatively, the final PBS wash was removed and cells were incubated with Accutase (Invitrogen) for 10 min at 37° C., neutralized with 10% FBS in 1×PBS, and analyzed by flow cytometry. An additional experiment was performed to measure glucose uptake in C2Cl2 cells exposed to metformin, insulin and ellagic acid dihydrate 2 (batch 2). FIG. 5C. Glucose uptake in ellagic acid dihydrate treated cell culture was measured and compared to glucose uptake under insulin or ellagic acid treatment. […] Flow cytometry results were run in triplicate with 1000 cells per batch.

The next series can be described thus: Activity level in mice. The format is in vivo, mouse. Particulars: predicted from in vitro data of Example 5. The text has this:
Activity levels in mice treated with ellagic acid dihydrate may be quantified by several procedures, such as those outlined in Turri, M. et al.; QTL Analysis Identifies Multiple Behavioral Dimensions in Ethological Tests of Anxiety in Laboratory Mice; Current Biology; 2001; 11(10): 725-734. Two examples of procedures taught therein follows. Gross Locomotor Activity in Home Cage: Mice are caged singly several days prior to home cage activity monitoring and subsequent testing. Activity in home cages are measured during the first 2 hours of the dark cycle on two consecutive days. Two infrared photo emitter-detector pairs, located outside the clear plastic home cage that divide the cage into three equal areas, are used to record gross locomotor activity on the floor of the home cage as the animal breaks the photo beams. The beam-break activity score consists of the square root of the number of beam breaks for each detector summed across the two test days. Magnitude of Activity in Home Cage: Mice are caged singly several days prior to home cage activity monitoring and subsequent testing. Activity in home cages are measured during the first 2 hours of the dark cycle on two consecutive days. An infrared motion detector located above the top of the home cage is employed to converts all motion sensed within the home cage into arbitrary units, based on the magnitude of activity detected.

The test system of another series is p44/42 MAPK. Kind of series: p44/42 MAPK:Phos p44/42 MAPK ratio by immunocytochemistry, high-content imaging in C2C12. The format is cell-based, mouse. Particulars: serum starved C2C12, 30 minutes; 400 nM, 0.04 nM. As for the experimental part:
Stimulation of AKT pathways and MAPK pathways in ellagic acid dihydrate, metformin, and insulin treated cell cultures was performed. Insulin stimulates glucose uptake into cells by increasing GLUT4 activation, and AKT, specifically phos-AKT, signaling alters GLUT4 translocation. […] Cellular assays were performed using mouse myoblast C2C12 cells. Relative protein levels of AKT:phos AKT and p44/42 MAPK:phos p44/42 MAPK were determined.
Serum starved cells (1 hr) were treated for 30 minutes with each of the tested compounds. Ratios of phosphorylated to non-phosphorylated proteins were determined using immunocytochemistry labeling (anti-AKT, anti-Phos AKT; or anti-p44/42 MAPK, anti-Phos p44/42 MAPK) on a high-content imaging system (Operetta, Perkin Elmer) using the fluorescent signal of anti-rabbit Alexa 647. Increased phosphorylation is indicated as decrease in signal of AKT:Phos AKT ratio (log 2 scale) and p44/42 MAPK:Phos p44/42 MAPK ratio (log 2 scale) relative to vehicle treated cells.

A short description of series [1]: Saturation of test compound in 100% DMSO. The format is physicochemical. The procedure: General Procedure. For Examples 2 through 7, all test compounds of interest were initially dissolved in 100% DMSO. Estimated saturation occurred at approximately 4 mM for ellagic acid dihydrate. The saturated solution was diluted 1:10 in 1×PBS; creating a 100× stock solution of 400 μM ellagic acid dihydrate. Working concentrations (1×), 4 μM, and more dilute concentrations of ellagic acid dihydrate were created by 1:10 dilutions into 0.1% DMSO. The resulting six dilutions ranged from 4 μM to 0.04 nM. Dose curves were analyzed using either Harmony software on the Operetta (Perkin Elmer) or Excel (Microsoft) for flow cytometry, which was performed on a BD Accuri (BD Biosciences).

The next series has as its system AKT. Kind of series: AKT:Phos AKT ratio by immunocytochemistry, high-content imaging in C2C12. It is filed as cell-based, mouse. Particulars: serum starved C2C12, 30 minutes; 4 nM-4 μM for insulin and ellagic acid dihydrate. As for the experimental part: Stimulation of AKT pathways and MAPK pathways in ellagic acid dihydrate, metformin, and insulin treated cell cultures was performed. Insulin stimulates glucose uptake into cells by increasing GLUT4 activation, and AKT, specifically phos-AKT, signaling alters GLUT4 translocation. […] Cellular assays were performed using mouse myoblast C2C12 cells. […] Serum starved cells (1 hr) were treated for 30 minutes with each of the tested compounds.

Series [2] is described as follows: Weight loss and blood glucose in female SWV mice with STZ induced diabetes, 30 days gavage. Particulars: STZ diabetic mice; predicted from in vitro data of Example 5. The format is in vivo, mouse. As for the experimental part: Weight loss and blood glucose in diabetes induced mice treated with ellagic acid was determined and weight loss and blood glucose in mice treated with ellagic acid dihydrate may be determined by the following procedures. Induction of Diabetes: Diabetes is induced in mice by intraperitoneal injection with Streptozotocin (STZ 40 mg/kg) daily for five days. The mice are considered hyperglycemic when the glucose level of each dam is above 200 mg/dL. The mice are fasted for 4 hours before STZ injection and glucose measurement. Treatment: The mice are treated daily for thirty days with ellagic acid or control in the form of a supplemental pill homogenized and suspended in 25% water solution of Cremophor EL. The mice are treated for one month via gavage using the human equivalent dose of 122.4 mg pill/kg of subject (40.6 mg ellagic acid/kg of the subject), the human equivalent does of 40.6 mg ellagic acid/kg of the subject using 98% pure ellagic acid, or control vehicle (25% water solution of Cremophor EL). The human equivalent dose is calculated as described in Example 8. Treatments would start two weeks after the last STZ injection in which hyperglycemia is confirmed in the diabetic mice. The mice would be weighed daily and glucose levels would be measured in fasted animals every five days.

Data on one molecule can be found in patent US20170367390A1, “USE OF ELLAGIC ACID DIHYDRATE IN FOOD PRODUCTS AND NUTRACEUTICALS” (HALO LIFE SCIENCE, LLC, priority 2014, published 2017).

As to `O.O.O=c1oc2c(O)c(O)cc3c(=O)oc4c(O)c(O)cc1c4c23` [ellagic acid dihydrate], in the series on MEF cells, the “dose effect for increasing glucose uptake” value is “dose effect for increasing glucose uptake”. The “glucose uptake (2-NBDG signal)” value with MEF cells (versus vehicle (Neg, 0.1% DMSO)) is “significantly greater than vehicle treated (Neg, 0.1% DMSO) or Insulin treated cells”. Moreover, the “activity level compared to mice treated with ellagic acid” value in “Activity level in mice” is recorded as “significantly greater activity level”. In the series with p44/42 MAPK, the “p44/42 MAPK:Phos p44/42 MAPK ratio relative to vehicle” value is recorded as “increase in p44/42 MAPK”. Further, the Estimated saturation result in series [1] is listed as “approximately 4 mM”. Further, in the series on AKT, the “AKT:Phos AKT ratio (log 2 scale) relative to vehicle treated cells” value is “increase in AKT relative to Phos-AKT signal”. In addition, in series [2], the “mean glucose level values compared to mice treated with ellagic acid” value is recorded as “lower mean glucose level values” and the “weight loss compared to mice treated with ellagic acid” value is on record as “greater decrease in weight loss”.
